Literature values as cited in publication PMC4364341, “NBD delivery improves the disease phenotype of the golden retriever model of Duchenne muscular dystrophy” (Skeletal Muscle, 2014).

Tested on: GRMD dogs
Conditions: previous GRMD prednisone trial; cited from earlier work
Text: This functional benefit obtained by NBD in GRMD dogs was consistent with that obtained in the mdx murine model of DMD [13].

C[C@]12C=CC(=O)C=C1CC[C@@H]1[C@@H]2C(=O)C[C@@]2(C)[C@H]1CC[C@]2(O)C(=O)CO [prednisone]
Extension force in treated GRMD dogs: increased extension force
